Here are results for four molecules from PMC3840147 (ACS chemical biology, 2013).

One assay has as its target T1, SENP7 (Homo sapiens, UniProt Q9BQF6).
T1 sequence (Q9BQF6 760-1050 limits assumed): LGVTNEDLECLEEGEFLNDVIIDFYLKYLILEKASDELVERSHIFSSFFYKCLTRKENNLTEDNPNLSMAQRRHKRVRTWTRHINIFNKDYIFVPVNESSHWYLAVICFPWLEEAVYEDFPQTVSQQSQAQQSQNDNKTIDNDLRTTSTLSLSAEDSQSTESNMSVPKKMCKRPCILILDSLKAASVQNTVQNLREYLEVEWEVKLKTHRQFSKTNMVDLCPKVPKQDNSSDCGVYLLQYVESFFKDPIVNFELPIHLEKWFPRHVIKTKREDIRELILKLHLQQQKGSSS
The assay is described as follows: DUB-Glo bioluminescent peptide substrate assay, SENP7. It counts as biochemical. As to conditions: read-out: SENP7 IC50.

The next assay deals with T2, SENP2 (Homo sapiens, UniProt Q9HC62).
T2 sequence (Q9HC62 364-589): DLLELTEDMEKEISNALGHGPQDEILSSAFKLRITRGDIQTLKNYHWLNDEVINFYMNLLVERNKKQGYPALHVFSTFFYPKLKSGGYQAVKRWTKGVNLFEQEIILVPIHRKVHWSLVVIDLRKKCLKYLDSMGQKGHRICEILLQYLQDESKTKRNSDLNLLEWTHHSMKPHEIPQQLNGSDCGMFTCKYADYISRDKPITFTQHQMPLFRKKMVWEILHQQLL
The assay is described as follows: DUB-Glo bioluminescent peptide substrate assay, SENP2. The assay is classed as biochemical. As to conditions: read-out: SENP2 IC50.

The test system of another assay is HeLa cells. The experiment in a line: Cellular SENP inhibition: SUMOylated proteins in HeLa cells by Western blot. As to conditions: increasing concentrations, 48 h. The assay is classed as cell-based. A general note: Immunoblotting shows a protein as a band on a membrane.

The structures appear in SMILES notation.

By IC50 is commonly meant the concentration that inhibits the measured activity by half.

Take `Cc1cc(N)ccc1/N=N/c1cc(S(=O)(=O)O)c2cccc(S(=O)(=O)O)c2c1` [SPI-07]: the IC50 at SENP7 was 1900 ± 2200 nM; at SENP2 it was greater than 60000 nM.

Take `Nc1ccc2cc(S(=O)(=O)O)cc(S(=O)(=O)O)c2c1N=Nc1ccc(S(=O)(=O)O)cc1` [SPI-09]: at SENP7, the IC50 was determined as 1900 ± 2100 nM.

As for `Nc1c(N=Nc2ccccc2)cc(S(=O)(=O)O)c2ccccc12` [SPI-08], the concentration for half-maximal inhibition (IC50) on SENP7 amounted to 2800 ± 1600 nM.

Regarding `Nc1ccc2ccccc2c1N=Nc1ccc(/C=C/c2ccc(N=Nc3c(N)ccc4ccccc34)cc2S(=O)(=O)O)c(S(=O)(=O)O)c1` [SPI-01], in the assay on HeLa cells, the “accumulation of SUMO-1 conjugates in cells” value is reported as “less significant effects”; the “accumulation of SUMO-2/3 conjugates in cells” value was “SUMO-2/3 conjugates accumulated in cells and this accumulation correlated with inhibitor concentration”.
